Reference: US11110067B2 (THE BOARD OF REGENTS OF THE UNIVERSITY OF TEXAS SYSTEM, priority 2008, dated 2021)

Key:
[1] = system: genetically heterogeneous mice; assay: Lifespan of mice fed test agents in the diet (Cohort 2005; rapamycin from 600 days of age); settings: for Survival compared with controls: added to the diet at 4 months of age, enalapril 120 mg/kg food, CAPE 30 or 300 mg/kg food; for Effect size expressed as life expectancy at 600 days / Effect size expressed as mean lifespan: pooled data set
Excerpt: Mice were produced at each of the three test sites by mating CB6F1 females with C3D2F1 males to produce a genetically heterogeneous population. […] Each test site enrolled approximately equal numbers of 19-21 day-old weanlings each month over a six month period, housing 3 males or 4 females/cage. Each site used diets that the manufacturer claimed were based on the NIH-31 standard for breeding cages and the period between weaning and the initiation of experimental diets, as follows: For breeding cages, UM used Purina 5008, UT used Teklad 7912, and TJL used Purina 5K52. For weanlings prior to 4 months of age, UM used Purina 5008, UT used Teklad 7912, and TJL used Purina 5LG6. Starting when 4 months old, mice in the Control, Enalapril, and CAPE groups received Purina 5LG6 at all three sites, without additives (control group) or with the test agent. […] The principal endpoint was age at death (for mice found dead at daily inspections) or age at euthanasia (for mice deemed unlikely to survive for more than an additional 48 h).
The Cohort 2005 study population, distributed almost equally among the three test sites, consisted initially of 1960 mice, of which 674 were assigned to the control group and 317 to 328 to each of the four treatment groups. Of these, 51 mice were removed from the study because of fighting (31 mice), accidental death (such as chip implantation or cage flooding; 13 mice), or because of technical error (error in gender assignment or diet selection; 7 mice). For survival analyses, mice were treated as alive at the date of their removal from the protocol, and lost to follow-up thereafter. These censored mice were not included in calculations of median longevity.
Mice were examined at least daily for signs of ill health, and were euthanized for humane reasons if they were so severely moribund that they were considered, by an experienced technician, unlikely to survive for more than an additional 48 hrs. […] The age at which a moribund mouse was euthanized was taken as the best available estimate of its natural lifespan. Mice found dead were also noted at each daily inspection.
TestDiet, Inc. (Richmond, Ind.) prepared batches of Purina 5LG6 food containing each of the test substances, as well as control diet batches, at intervals of approximately 120 days, and shipped each batch of food at the same time to each of the three test sites. Enalapril was purchased from Sigma (catalogue E6888-5G) and used at 120 mg per kg food; on the assumption that the average mouse weighs 30 gm and consumes 5 gm of food/day, this dose supplies 20 mg enalapril per kg body weight/day. CAPE, i.e. caffeic acid phenethyl ester, was purchased from Cayman (Ann Arbor, Mich.; Catalogue 70750), and used at either of two doses: the high dose was 300 mg/kg food (50 mg/kg body weight/day), and the low dose was 30 mg/kg food (5 mg/kg body weight/day).

[2] = system: phosphorylation of ribosomal protein S6 (Ser240/244), a substrate of S6 kinase 1; assay: Immunoblot of rpS6 phosphorylation in tissue lysates; assay type: in vivo, mouse; settings: visceral white adipose tissue; fed from 270 to about 800 days of age
Procedure: Signal intensities for each immunoblot were captured using a Kodak Image Station, which were analysed using Kodak 1D image analysis software.

[3] = system: Aβ / APP in brains of 3×Tg-AD mice; assay: APP Western blots, Aβ ELISA and immunohistochemistry in brain, 3xTg-AD mice; assay type: in vivo, mouse; settings: ELISA
Procedure: (§1) Tissue was processed and analyzed as described previously 13, 25, 26 and is described in detail in Supplementary Information. Aβ and tau were measured using specific ELISAs.
3×Tg-AD mice were sacrificed by CO2 asphyxiation. The brains were extracted and cut in-half sagitally and tissue was processed as described (Oddo et al., 2008). The hAPP(J20) mice were euthanized by isoflurane overdose. Hemibrains were flash frozen. One hemibrain was homogeneized in liquid N2 while the other was used in immunohistochemical determinations. For Western blot analyses, proteins from both hAPP(J20) and 3×Tg-AD soluble fractions were resolved by SDS/PAGE (Invitrogen, Temecula, Calif.) under reducing conditions and transferred to a nitrocellulose or PVDF membrane. The membrane was incubated in a 5% solution of non-fat milk or in 5% BSA for 1 hour at 20° C. […] Aβ40 and Aβ42 levels were measured from the soluble and insoluble fractions using a sandwich ELISA protocol as described previously (Oddo et al., 2005). Aβ40 and Aβ42 in hAPP(J20) mice were quantitated in guanidine homogenates of Tg hAPP(J20) hemibrains as described (Galvan et al., 2006) using specific ELISA assays (Invitrogen, Carlsbad, Calif.). […]

[4] = system: Aβ / APP in brains of hAPP(J20) mice; assay: APP Western blots and Aβ ELISA in brain, hAPP(J20) mice; assay type: in vivo, mouse
Procedure: as §1
3×Tg-AD mice were sacrificed by CO2 asphyxiation. The brains were extracted and cut in-half sagitally and tissue was processed as described (Oddo et al., 2008). The hAPP(J20) mice were euthanized by isoflurane overdose. Hemibrains were flash frozen. One hemibrain was homogeneized in liquid N2 while the other was used in immunohistochemical determinations. For Western blot analyses, proteins from both hAPP(J20) and 3×Tg-AD soluble fractions were resolved by SDS/PAGE (Invitrogen, Temecula, Calif.) under reducing conditions and transferred to a nitrocellulose or PVDF membrane. The membrane was incubated in a 5% solution of non-fat milk or in 5% BSA for 1 hour at 20° C. […] Aβ40 and Aβ42 levels were measured from the soluble and insoluble fractions using a sandwich ELISA protocol as described previously (Oddo et al., 2005). Aβ40 and Aβ42 in hAPP(J20) mice were quantitated in guanidine homogenates of Tg hAPP(J20) hemibrains as described (Galvan et al., 2006) using specific ELISA assays (Invitrogen, Carlsbad, Calif.).

[5] = Body weight of rapamycin-fed mice; assay type: in vivo, mouse
HET3 mice = assay: Glucose tolerance on high fat diet; assay type: in vivo, mouse; settings: HET3 mice fed a high fat diet
[6] = Pong and Zaleska, 2003; cited from earlier work

Question: For `O=C(/C=C/c1ccc(O)c(O)c1)OCCc1ccccc1` [CAPE, caffeic acid phenethyl ester], which “Survival compared with controls” value [1] is on record?
Answer: did not differ from controls

Question: Which “Survival compared with controls” value [1] does the source give for `CCOC(=O)[C@H](CCc1ccccc1)N[C@@H](C)C(=O)N1CCC[C@H]1C(=O)O` [enalapril] here?
Answer: did not differ from controls

Question: What does the source list for `CO[C@H]1C[C@@H]2CC[C@@H](C)[C@@](O)(O2)C(=O)C(=O)N2CCCC[C@H]2C(=O)O[C@H]([C@H](C)C[C@@H]2CC[C@@H](O)[C@H](OC)C2)CC(=O)[C@H](C)/C=C(\C)[C@@H](O)[C@@H](OC)C(=O)[C@H](C)C[C@H](C)/C=C/C=C/C=C/1C` [rapamycin, (3S,6R,7E,9R,10R,12R,14S,15E,17E,19E,21S,23S,26R,27R,34aS)-9,10,12,13,14,21,22,23,24,25,26,27,32,33,34,34a-hexadecahydro-9,27-dihydroxy-3-[(1R)-2-[(1S,3R,4R)-4-hydroxy-3-methoxycyclohexyl]-1-methylethyl]-10,21-dimethoxy-6,8,12,14,20,26-hexamethyl-23,27-epoxy-3H-pyrido[2,1-c][1,4]oxaazacyclohentria-contine-1,5,11,28,29 (4H,6H,31H)-pentone]?
Answer: Reduction of levels of phosphorylated rpS6 [2]: 4-5 fold; Decrease of soluble Aβ42 levels [3]: 32.78±6.68%; Decrease of soluble Aβ42 levels [4]: 52.35±13.14%; Body weight ([5]; high fat diet, 12 weeks of feeding): No difference; Body weight ([5]; mouse, in vivo): No effect; Glucose tolerance (HET3 mice): causes glucose intolerance; Blood brain barrier passage [6]: readily crosses the blood brain barrier; Increase of life expectancy at 600 days ([1]; females, TJL): 45%; Mean lifespan increase ([1]; females, TJL): 15%; Percentage increase of age at 90th percentile versus controls ([1]; females, TJL): 17%; % Live at the 90th percentile age of the joint distribution ([1]; females, TJL, age 1167 days): 22.9%; Number alive at the 90th percentile age ([1]; females, TJL, age 1167 days): 11; Number dead at the 90th percentile age ([1]; females, TJL, age 1167 days): 37; Increase of life expectancy at 600 days ([1]; females, UM): 48%; Mean lifespan increase ([1]; females, UM): 16%; Percentage increase of age at 90th percentile versus controls ([1]; females, UM): 14%; % Live at the 90th percentile age of the joint distribution ([1]; females, UM, age 1162 days): 27.1%; Number alive at the 90th percentile age ([1]; females, UM, age 1162 days): 13; Number dead at the 90th percentile age ([1]; females, UM, age 1162 days): 35; Increase of life expectancy at 600 days ([1]; females, UT): 22%; Mean lifespan increase ([1]; females, UT): 7%; Percentage increase of age at 90th percentile versus controls ([1]; females, UT): 8%; % Live at the 90th percentile age of the joint distribution ([1]; females, UT, age 1123 days): 14.6%; Number alive at the 90th percentile age ([1]; females, UT, age 1123 days): 7; Number dead at the 90th percentile age ([1]; females, UT, age 1123 days): 41; Percentage increase of age at 90th percentile versus controls ([1]; females, all sites): 14%; Effect size expressed as life expectancy at 600 days ([1]; females): 38%; Effect size expressed as mean lifespan ([1]; females): 13%; % Live at the 90th percentile age of the joint distribution ([1]; females, pooled sites): 21.5%; Number alive at the 90th percentile age ([1]; females, pooled sites): 31; Number dead at the 90th percentile age ([1]; females, pooled sites): 113; % Live at the 90th percentile age of the joint distribution ([1]; females, pooled sites, listed as Rapa): 21.5%; Increase of life expectancy at 600 days ([1]; males, TJL): 16%; Mean lifespan increase ([1]; males, TJL): 5%; Percentage increase of age at 90th percentile versus controls ([1]; males, TJL): 10%; % Live at the 90th percentile age of the joint distribution ([1]; males, TJL, age 1088 days): 19.3%; Number alive at the 90th percentile age ([1]; males, TJL, age 1088 days): 11; Number dead at the 90th percentile age ([1]; males, TJL, age 1088 days): 46; Increase of life expectancy at 600 days ([1]; males, UM): 23%; Mean lifespan increase ([1]; males, UM): 8%; Percentage increase of age at 90th percentile versus controls ([1]; males, UM): 4%; % Live at the 90th percentile age of the joint distribution ([1]; males, UM, age 1154 days): 17.6%; Number alive at the 90th percentile age ([1]; males, UM, age 1154 days): 9; Number dead at the 90th percentile age ([1]; males, UM, age 1154 days): 42; Increase of life expectancy at 600 days ([1]; males, UT): 52%; Mean lifespan increase ([1]; males, UT): 15%; Percentage increase of age at 90th percentile versus controls ([1]; males, UT): 16%; % Live at the 90th percentile age of the joint distribution ([1]; males, UT, age 1112 days): 23.3%; Number alive at the 90th percentile age ([1]; males, UT, age 1112 days): 14; Number dead at the 90th percentile age ([1]; males, UT, age 1112 days): 48; Percentage increase of age at 90th percentile versus controls ([1]; males, all sites): 9%; Effect size expressed as life expectancy at 600 days ([1]; males): 28%; Effect size expressed as mean lifespan ([1]; males): 9%; % Live at the 90th percentile age of the joint distribution ([1]; males, pooled sites): 20.2%; Number alive at the 90th percentile age ([1]; males, pooled sites): 34; Number dead at the 90th percentile age ([1]; males, pooled sites): 134; % Live at the 90th percentile age of the joint distribution ([1]; males, pooled sites, listed as Rapa): 20.2%
